Experimental data taken from ChEMBL document CHEMBL1201862, “PubChem BioAssay data set” (2004).
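Exposure lasted 48 hours, with cells grown in 96-well plates and compounds tested at five concentrations. GI50: concentration for 50% inhibition of growth.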 Active and inactive are the calls of the source. Rule as the data show it: active = GI50 up to about 1.1 µM and inactive = higher.

Key:
Test in all cases: NCI tumour cell line growth inhibition, 48 h
SNB-75 = system: SNB-75
HCT-15 = system: HCT-15
SF-295 = system: SF-295
HOP-92 = system: HOP-92
UO-31 = system: UO-31
PC-3 = system: PC-3
SF-268 = system: SF-268
SK-MEL-5 = system: SK-MEL-5
HL-60 = system: HL-60
OVCAR-3 = system: OVCAR-3
SK-MEL-2 = system: SK-MEL-2
OVCAR-5 = system: OVCAR-5
SF-539 = system: SF-539
SR = system: SR
NCI-H460 = system: NCI-H460
Malme-3M = system: Malme-3M
HCT-116 = system: HCT-116
OVCAR-8 = system: OVCAR-8
LOX IMVI = system: LOX IMVI
CCRF-CEM = system: CCRF-CEM

Row | Structure (SMILES) | GI50 (SNB-75) | GI50 (HCT-15) [µM] | GI50 (SF-295) | GI50 (HOP-92) | GI50 (UO-31) | GI50 (PC-3) | GI50 (SF-268) | GI50 (SK-MEL-5) | GI50 (HL-60) | GI50 (OVCAR-3) | GI50 (SK-MEL-2) | GI50 (OVCAR-5) | GI50 (SF-539) | GI50 (SR) | GI50 (NCI-H460) | GI50 (Malme-3M) | GI50 (HCT-116) | GI50 (OVCAR-8) | GI50 (LOX IMVI) | GI50 (CCRF-CEM)
1 | CN(C)S(=O)(=O)Nc1nnc(S(N)(=O)=O)s1 | > 100 µM (inactive) | > 100 | > 100 µM (inactive) | > 100 µM (inactive) | > 100 µM (inactive) | > 100 µM (inactive) | > 100 µM (inactive) | > 100 µM (inactive) | > 100 µM (inactive) | > 100 µM (inactive) | > 100 µM (inactive) | > 100 µM (inactive) | > 100 µM (inactive) | > 100 µM (inactive) | > 100 µM (inactive) | > 100 µM (inactive) | > 100 µM (inactive) | – | – | –
2 | CCN(CC)/C(Cl)=C(Cl)\C(=C1\Nc2ccc(OC)cc21)[N+](=O)[O-] | 15.3 µM (inactive) | 52.7 | 45.8 µM (inactive) | > 100 µM (inactive) | 95.1 µM (inactive) | 31.6 µM (inactive) | 50.4 µM (inactive) | 28.6 µM (inactive) | 32.3 µM (inactive) | 13.7 µM (inactive) | – | 95.7 µM (inactive) | – | 16.6 µM (inactive) | 31.1 µM (inactive) | > 100 µM (inactive) | 44.6 µM (inactive) | 63.4 µM (inactive) | 38.7 µM (inactive) | 20.1 µM (inactive)
3 | O=C(Cn1c2c(c3ccccc31)CCCC2)N1CCCCC1 | – | > 100 | > 100 µM (inactive) | > 100 µM (inactive) | > 100 µM (inactive) | > 100 µM (inactive) | – | > 100 µM (inactive) | > 100 µM (inactive) | > 100 µM (inactive) | > 100 µM (inactive) | > 100 µM (inactive) | 86.7 µM (inactive) | > 100 µM (inactive) | > 100 µM (inactive) | > 100 µM (inactive) | > 100 µM (inactive) | > 100 µM (inactive) | > 100 µM (inactive) | –
4 | CN(Cc1cc(Cl)cc(Cl)c1O)Cc1c(O)ccc2ccccc12 | 16.7 µM (inactive) | 17.6 | 17.2 µM (inactive) | 20.1 µM (inactive) | 17.3 µM (inactive) | 16.6 µM (inactive) | 13.6 µM (inactive) | 17.5 µM (inactive) | 25.4 µM (inactive) | 16.6 µM (inactive) | 19.3 µM (inactive) | 23.1 µM (inactive) | 20.9 µM (inactive) | 23.8 µM (inactive) | 18.4 µM (inactive) | 14.9 µM (inactive) | 23.7 µM (inactive) | 19.5 µM (inactive) | 16.7 µM (inactive) | –
5 | CCOC(=O)c1csc(NC(=O)CN(C)C)n1 | > 100 µM (inactive) | > 100 | > 100 µM (inactive) | > 100 µM (inactive) | > 100 µM (inactive) | > 100 µM (inactive) | > 100 µM (inactive) | > 100 µM (inactive) | > 100 µM (inactive) | > 100 µM (inactive) | > 100 µM (inactive) | > 100 µM (inactive) | > 100 µM (inactive) | > 100 µM (inactive) | > 100 µM (inactive) | – | – | > 100 µM (inactive) | > 100 µM (inactive) | > 100 µM (inactive)
6 | CC[N+]1(C)CCC(O)(c2ccc(Cl)cc2)C(C(=O)c2ccc(Cl)cc2)C1 (centres undefined) | > 10 µM (inactive) | 22 | > 10 µM (inactive) | > 10 µM (inactive) | 20.1 µM (inactive) | 17.5 µM (inactive) | 24.5 µM (inactive) | – | 7.83 µM (inactive) | 20.5 µM (inactive) | – | 19.1 µM (inactive) | – | 6.34 µM (inactive) | 27.5 µM (inactive) | 7.31 µM (inactive) | 10.3 µM (inactive) | 46.6 µM (inactive) | 5.58 µM (inactive) | 2.74 µM (inactive)
7 | CN1C(NN)=NS(=O)(=O)c2ccccc21 | – | > 100 | > 100 µM (inactive) | > 100 µM (inactive) | > 100 µM (inactive) | > 100 µM (inactive) | > 100 µM (inactive) | > 100 µM (inactive) | > 100 µM (inactive) | > 100 µM (inactive) | > 100 µM (inactive) | > 100 µM (inactive) | > 100 µM (inactive) | 8.51 µM (inactive) | > 100 µM (inactive) | – | > 100 µM (inactive) | > 100 µM (inactive) | > 100 µM (inactive) | > 100 µM (inactive)
8 | O=C(NC1CCCCC1)c1cc2ccccc2cc1O | 45.5 µM (inactive) | 26.4 | 29.9 µM (inactive) | 22.3 µM (inactive) | 32.4 µM (inactive) | 28.8 µM (inactive) | 46.1 µM (inactive) | 19.6 µM (inactive) | 22.6 µM (inactive) | – | 23.3 µM (inactive) | – | 24 µM (inactive) | 38.7 µM (inactive) | 26.1 µM (inactive) | – | 18.7 µM (inactive) | 26.2 µM (inactive) | 38.8 µM (inactive) | 38.9 µM (inactive)
9 | CCCCOc1ccc(/C=C/C2=[N+](CCO)CCO2)cc1 | 67.1 µM (inactive) | 51.9 | 48.5 µM (inactive) | 44.3 µM (inactive) | 32.1 µM (inactive) | 68.4 µM (inactive) | > 100 µM (inactive) | 68.5 µM (inactive) | 21.7 µM (inactive) | 61.5 µM (inactive) | > 100 µM (inactive) | > 100 µM (inactive) | 21.7 µM (inactive) | 38 µM (inactive) | 68.7 µM (inactive) | 80 µM (inactive) | 39.8 µM (inactive) | 70.1 µM (inactive) | – | 30.4 µM (inactive)
10 | CC1OC(OC2C(CO)OC(O[C@H]3CC[C@@]4(C)C(=CC[C@H]5[C@@H]6C[C@@H]7O[C@](O)(CC[C@H](CO)COC8OC(CO)C(O)C(O)C8O)[C@@H](C)[C@@H]7[C@@]6(C)CC[C@@H]54)C3)C(OC3OC(C)C(O)C(O)C3O)C2O)C(O)C(O)C1O (some centres undefined) | > 100 µM (inactive) | 54 | > 100 µM (inactive) | > 100 µM (inactive) | > 100 µM (inactive) | > 100 µM (inactive) | > 100 µM (inactive) | > 100 µM (inactive) | – | > 100 µM (inactive) | > 100 µM (inactive) | > 100 µM (inactive) | > 100 µM (inactive) | > 100 µM (inactive) | > 100 µM (inactive) | > 100 µM (inactive) | > 100 µM (inactive) | > 100 µM (inactive) | > 100 µM (inactive) | > 100 µM (inactive)
11 | O=C(Nn1c(-c2ccccc2)nc2ccccc2c1=O)c1cccc([N+](=O)[O-])c1 | > 100 µM (inactive) | 55.7 | – | 35.2 µM (inactive) | 39.3 µM (inactive) | 43.1 µM (inactive) | > 100 µM (inactive) | 37.6 µM (inactive) | > 100 µM (inactive) | > 100 µM (inactive) | – | > 100 µM (inactive) | > 100 µM (inactive) | 47.2 µM (inactive) | 53.8 µM (inactive) | – | > 100 µM (inactive) | > 100 µM (inactive) | > 100 µM (inactive) | 52.5 µM (inactive)
12 | Nc1ncnc2c1ncn2Cc1cccc(CCl)c1 | 30.1 µM (inactive) | 17.9 | 15.9 µM (inactive) | 19.7 µM (inactive) | 16.5 µM (inactive) | 14.7 µM (inactive) | 14.7 µM (inactive) | 16.1 µM (inactive) | 15 µM (inactive) | 14.1 µM (inactive) | 15 µM (inactive) | 14.5 µM (inactive) | 14.8 µM (inactive) | 6.43 µM (inactive) | 14.2 µM (inactive) | 17.9 µM (inactive) | 10.4 µM (inactive) | 16.1 µM (inactive) | 20.1 µM (inactive) | –
13 | O=S(=O)(O)C1CCC(O)C2NCCCC21 (centres undefined) | > 100 µM (inactive) | > 100 | > 100 µM (inactive) | > 100 µM (inactive) | > 100 µM (inactive) | > 100 µM (inactive) | > 100 µM (inactive) | > 100 µM (inactive) | 20.7 µM (inactive) | > 100 µM (inactive) | > 100 µM (inactive) | > 100 µM (inactive) | > 100 µM (inactive) | > 100 µM (inactive) | > 100 µM (inactive) | > 100 µM (inactive) | > 100 µM (inactive) | > 100 µM (inactive) | > 100 µM (inactive) | –
14 | COc1cc(/C=C2\N=C(c3ccccc3)N(/N=C/c3cc4cc(C)ccc4nc3Cl)C2=O)cc(OC)c1OC | 17.1 µM (inactive) | 32.4 | 44.2 µM (inactive) | 54.6 µM (inactive) | 48.6 µM (inactive) | 18.1 µM (inactive) | 35.6 µM (inactive) | 37.9 µM (inactive) | 10.5 µM (inactive) | 26.5 µM (inactive) | 17.9 µM (inactive) | > 100 µM (inactive) | 23.4 µM (inactive) | 19.4 µM (inactive) | 29.4 µM (inactive) | – | 33.7 µM (inactive) | 35.1 µM (inactive) | 32.1 µM (inactive) | –
15 | c1ccc2c(c1)nnn2CN1CCOCC1 | – | > 100 | > 100 µM (inactive) | 45.8 µM (inactive) | > 100 µM (inactive) | > 100 µM (inactive) | 63.8 µM (inactive) | > 100 µM (inactive) | 29.2 µM (inactive) | 28.9 µM (inactive) | > 100 µM (inactive) | > 100 µM (inactive) | – | 25 µM (inactive) | 46.3 µM (inactive) | 41.8 µM (inactive) | > 100 µM (inactive) | 36.3 µM (inactive) | 36.6 µM (inactive) | –
